# Test results reported in paper PMC7345905, “Microbial Metabolite Urolithin B Inhibits Recombinant Human Monoamine Oxidase A Enzyme” (Metabolites, 2020).
# Values joined by “and” are separate entries in the source; they are usually repeats but may differ in a detail not shown here. Identical values can stand only once.
# Assays:
# [1] = biological target: T1, human recombinant MAO-B (Homo sapiens, UniProt P27338); assay: MAO-Glo MAO-B inhibition assay; format: biochemical; conditions: N=1-3, listed as UroC
# T1 construct: purchased Sigma-Aldrich
# T1 sequence (P27338 1-520): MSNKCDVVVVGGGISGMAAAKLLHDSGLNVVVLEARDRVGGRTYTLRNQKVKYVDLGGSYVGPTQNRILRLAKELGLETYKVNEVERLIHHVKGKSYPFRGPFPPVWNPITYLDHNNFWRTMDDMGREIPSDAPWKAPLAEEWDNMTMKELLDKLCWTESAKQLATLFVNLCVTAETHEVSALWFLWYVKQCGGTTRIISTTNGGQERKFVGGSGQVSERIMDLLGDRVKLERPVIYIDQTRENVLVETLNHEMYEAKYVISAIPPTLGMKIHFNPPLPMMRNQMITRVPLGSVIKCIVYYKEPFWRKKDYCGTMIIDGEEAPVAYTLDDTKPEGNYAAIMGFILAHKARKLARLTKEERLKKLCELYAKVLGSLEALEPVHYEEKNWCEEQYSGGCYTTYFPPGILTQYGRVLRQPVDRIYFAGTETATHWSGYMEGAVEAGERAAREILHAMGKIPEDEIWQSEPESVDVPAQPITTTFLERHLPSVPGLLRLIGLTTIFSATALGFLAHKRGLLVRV
# [2] = biological target: T2, human recombinant MAO-A (Homo sapiens, UniProt P21397); assay: MAO-A inhibition kinetics (variable substrate, Lineweaver–Burk plot); format: biochemical; design: Michaelis-Menten best-fit Vmax of MAO-A / Michaelis-Menten best-fit Vmax of MAO-A, Average: unit not given here; conditions: for MAO-A assay signal (luminescence) / Transformed (reciprocal of MAO-A assay signal) / Michaelis-Menten best-fit Vmax of MAO-A: N=1-3
# T2 construct: purchased Sigma-Aldrich
# T2 sequence (P21397 1-527): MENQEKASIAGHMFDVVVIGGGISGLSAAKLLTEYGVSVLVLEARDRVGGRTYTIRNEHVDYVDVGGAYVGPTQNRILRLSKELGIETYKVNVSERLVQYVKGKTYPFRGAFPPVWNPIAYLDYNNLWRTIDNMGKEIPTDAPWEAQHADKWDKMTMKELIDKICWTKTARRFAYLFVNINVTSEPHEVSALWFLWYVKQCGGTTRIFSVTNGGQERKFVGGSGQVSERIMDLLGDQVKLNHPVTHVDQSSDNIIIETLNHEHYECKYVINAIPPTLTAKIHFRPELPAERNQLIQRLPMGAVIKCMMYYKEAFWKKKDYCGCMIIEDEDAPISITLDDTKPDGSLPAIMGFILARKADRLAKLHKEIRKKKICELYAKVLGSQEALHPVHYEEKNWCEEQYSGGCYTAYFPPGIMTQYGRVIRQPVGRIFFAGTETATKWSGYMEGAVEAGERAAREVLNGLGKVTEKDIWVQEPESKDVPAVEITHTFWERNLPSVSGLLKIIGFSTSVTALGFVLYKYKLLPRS
# Procedure: MAO inhibition assays were performed using a MAO-Glo™ Assay kit (Promega) according to the manufacturer’s instructions. Briefly, 1 µg of human recombinant MAO-A and MAO-B enzyme isoforms were incubated with 160 and 16 µM of MAO substrates, respectively. […] The enzyme reaction was quenched by the addition of a luciferin detection reagent. […] An equal volume of dimethyl sulfoxide (0.1%) was added to the enzyme assay as a control. After 1 h of incubation, the luminescence was measured with a multimode microplate reader (Synergy HT, BioTek, Winooski, VT, USA) to determine the MAO enzyme activities. Initially, the inhibition potential of all the test compounds was evaluated at a concentration of 100 μM. The control reaction (with no inhibitor) with vehicle (DMSO 0.1%) was set at 100% activity. To determine IC50 of the test compounds, the dose dependent enzyme assays were performed. We used range of 0.1 to 50 μM concentrations for MAO-A and 0.1 to 200 μM concentrations of test compounds for the MAO-B enzyme activities. The type of enzyme inhibition was determined using variable concentrations of MAO-A substrate (10–360 µM) and MAO-B substrate (2–64 µM) for the respective enzyme assay. […] A Lineweaver–Burk double reciprocal plot was generated, and the mode of inhibition was determined by visual examination of the plot. The slope of the reciprocal plots was plotted against the inhibitor concentrations and determined the x-axis intercept that represented the inhibitor constant, Ki value.
# All experiments were performed in triplicates and data are presented as mean ± standard error of the mean (SEM). The raw data are provided in Supplementary Data, Table S1. Enzyme kinetic data were analyzed using the Lineweaver–Burk plot. Statistical analysis was performed by Student’s t-test using GraphPad Prism Ver. 7.0 (GraphPad Prism Software Inc., San Diego, CA, USA).
# [3] = UroC 15 µM, MAO-A substrate 10 uM
# [4] = UroC 15 µM, MAO-A substrate 20 uM
# [5] = UroC 15 µM, MAO-A substrate 40 uM
# [6] = UroC 15 µM, MAO-A substrate 80 uM
# [7] = UroC 15 µM, MAO-A substrate 160 uM
# [8] = UroC 15 µM, MAO-A substrate 320 uM
# [9] = UroC 60 µM, MAO-A substrate 10 uM
# [10] = UroC 60 µM, MAO-A substrate 20 uM
# [11] = UroC 60 µM, MAO-A substrate 40 uM
# [12] = UroC 60 µM, MAO-A substrate 80 uM
# [13] = UroC 60 µM, MAO-A substrate 160 uM
# [14] = UroC 60 µM, MAO-A substrate 320 uM
compound,measurement,setting,value
"O=c1oc2cc(O)ccc2c2cc(O)c(O)cc12 [UC, urolithin-C]","MAO-B enzyme assay, Percent of control",[1]; 0.1 µM,110.306% of control and 101.117% of control and 109.128% of control
same,"MAO-B enzyme assay, Percent of control",[1]; 1 µM,102.407% of control and 98.5247% of control and 98.1149% of control
same,"MAO-B enzyme assay, Percent of control",[1]; 10 µM,102.182% of control and 94.8161% of control and 92.9925% of control
same,"MAO-B enzyme assay, Percent of control",[1]; 25 µM,89.5195% of control and 89.6937% of control and 94.0068% of control
same,"MAO-B enzyme assay, Percent of control",[1]; 50 µM,87.5627% of control and 83.096% of control and 84.7864% of control
same,"MAO-B enzyme assay, Percent of control","[1]; 100 µM (Figure 1C), 100 µM",86.1998% of control and 88.2904% of control and 90.5046% of control
same,"MAO-B enzyme assay, Percent of control",[1]; 100 µM,82.8808% of control and 77.9531% of control and 81.7949% of control
same,"MAO-B enzyme assay, Percent of control",[1]; 200 µM,43.4074% of control and 44.8007% of control and 46.1838% of control
same,mode of inhibition of MAO-A,[2]; Lineweaver–Burk plot,mixed mode of inhibition
same,"MAO-A assay signal (luminescence), Average",[2]; [3],1825
same,MAO-A assay signal (luminescence),[2]; [3],1969 and 1718 and 1788
same,"MAO-A assay signal (luminescence), Average",[2]; [4],3291
same,MAO-A assay signal (luminescence),[2]; [4],3541 and 3116 and 3216
same,"MAO-A assay signal (luminescence), Average",[2]; [5],5930.67
same,MAO-A assay signal (luminescence),[2]; [5],6537 and 5679 and 5576
same,"MAO-A assay signal (luminescence), Average",[2]; [6],11350.3
same,MAO-A assay signal (luminescence),[2]; [6],12348 and 10938 and 10765
same,"MAO-A assay signal (luminescence), Average",[2]; [7],17552.3
same,MAO-A assay signal (luminescence),[2]; [7],18484 and 16889 and 17284
same,"MAO-A assay signal (luminescence), Average",[2]; [8],26455.7
same,MAO-A assay signal (luminescence),[2]; [8],27220 and 26215 and 25932
same,"Transformed (reciprocal of MAO-A assay signal), Average","[2]; UroC 15 µM, [1/S] 0.003125",3.78e-5
same,Transformed (reciprocal of MAO-A assay signal),"[2]; UroC 15 µM, [1/S] 0.003125",3.674e-5 and 3.815e-5 and 3.856e-5
same,"Transformed (reciprocal of MAO-A assay signal), Average","[2]; UroC 15 µM, [1/S] 0.00625",5.697e-5
same,Transformed (reciprocal of MAO-A assay signal),"[2]; UroC 15 µM, [1/S] 0.00625",5.41e-5 and 5.921e-5 and 5.7857e-5
same,"Transformed (reciprocal of MAO-A assay signal), Average","[2]; UroC 15 µM, [1/S] 0.0125",8.81e-5
same,Transformed (reciprocal of MAO-A assay signal),"[2]; UroC 15 µM, [1/S] 0.0125",8.098e-5 and 9.142e-5 and 9.289e-5
same,"Transformed (reciprocal of MAO-A assay signal), Average","[2]; UroC 15 µM, [1/S] 0.025",0.0001686
same,Transformed (reciprocal of MAO-A assay signal),"[2]; UroC 15 µM, [1/S] 0.025",0.000153 and 0.0001761 and 0.0001793
same,"Transformed (reciprocal of MAO-A assay signal), Average","[2]; UroC 15 µM, [1/S] 0.05",0.0003039
same,Transformed (reciprocal of MAO-A assay signal),"[2]; UroC 15 µM, [1/S] 0.05",0.0002824 and 0.0003209 and 0.0003109
same,"Transformed (reciprocal of MAO-A assay signal), Average","[2]; UroC 15 µM, [1/S] 0.1",0.0005479
same,Transformed (reciprocal of MAO-A assay signal),"[2]; UroC 15 µM, [1/S] 0.1",0.0005079 and 0.0005821 and 0.0005593
same,"MAO-A assay signal (luminescence), Average",[2]; [9],728
same,MAO-A assay signal (luminescence),[2]; [9],706 and 793 and 685
same,"MAO-A assay signal (luminescence), Average",[2]; [10],1221
same,MAO-A assay signal (luminescence),[2]; [10],1198 and 1213 and 1252
same,"MAO-A assay signal (luminescence), Average",[2]; [11],2305.33
same,MAO-A assay signal (luminescence),[2]; [11],2310 and 2236 and 2370
same,"MAO-A assay signal (luminescence), Average",[2]; [12],4337.33
same,MAO-A assay signal (luminescence),[2]; [12],4338 and 4394 and 4280
same,"MAO-A assay signal (luminescence), Average",[2]; [13],8033.33
same,MAO-A assay signal (luminescence),[2]; [13],7953 and 7801 and 8346
same,"MAO-A assay signal (luminescence), Average",[2]; [14],14867.3
same,MAO-A assay signal (luminescence),[2]; [14],14760 and 14941 and 14901
same,"Transformed (reciprocal of MAO-A assay signal), Average","[2]; UroC 60 µM, [1/S] 0.003125",6.726e-5
same,Transformed (reciprocal of MAO-A assay signal),"[2]; UroC 60 µM, [1/S] 0.003125",6.775e-5 and 6.693e-5 and 6.711e-5
same,"Transformed (reciprocal of MAO-A assay signal), Average","[2]; UroC 60 µM, [1/S] 0.00625",0.0001245
same,Transformed (reciprocal of MAO-A assay signal),"[2]; UroC 60 µM, [1/S] 0.00625",0.0001257 and 0.0001282 and 0.0001198
same,"Transformed (reciprocal of MAO-A assay signal), Average","[2]; UroC 60 µM, [1/S] 0.0125",0.0002306
same,Transformed (reciprocal of MAO-A assay signal),"[2]; UroC 60 µM, [1/S] 0.0125",0.0002305 and 0.0002276 and 0.0002336
same,"Transformed (reciprocal of MAO-A assay signal), Average","[2]; UroC 60 µM, [1/S] 0.025",0.0004338
same,Transformed (reciprocal of MAO-A assay signal),"[2]; UroC 60 µM, [1/S] 0.025",0.0004329 and 0.0004472 and 0.0004219
same,"Transformed (reciprocal of MAO-A assay signal), Average","[2]; UroC 60 µM, [1/S] 0.05",0.000819
same,Transformed (reciprocal of MAO-A assay signal),"[2]; UroC 60 µM, [1/S] 0.05",0.0008347 and 0.0008244 and 0.0007987
same,"Transformed (reciprocal of MAO-A assay signal), Average","[2]; UroC 60 µM, [1/S] 0.1",0.001374
same,Transformed (reciprocal of MAO-A assay signal),"[2]; UroC 60 µM, [1/S] 0.1",0.001416 and 0.001261 and 0.00146
same,"Michaelis-Menten best-fit Vmax of MAO-A, Average",[2]; in presence of UroC 15 uM,50085
same,Michaelis-Menten best-fit Vmax of MAO-A,[2]; in presence of UroC 15 uM,47688 and 52039 and 50528
same,"Michaelis-Menten best-fit Vmax of MAO-A, Average",[2]; in presence of UroC 60 uM,82346
same,Michaelis-Menten best-fit Vmax of MAO-A,[2]; in presence of UroC 60 uM,96239 and 71263 and 79536
same,Ki,[2]; x-axis intercept of slopes of Lineweaver–Burk plots vs inhibitor concentration,44.3 µM
